Earlier results on 17 molecules are cited in patent US9745567B2, “Compositions and methods for treating multiple sclerosis” (REVALESIO CORPORATION, priority 2008, dated 2017).

Counter-ions that a name gives are not always drawn. Like-named read-outs stand apart in the source and are kept apart here.

Some targets named below: MMP-8 (Homo sapiens, UniProt P22894); MMP-9 (Homo sapiens, UniProt P14780); MMP-13 (Homo sapiens, UniProt P45452); TACE (Homo sapiens, UniProt P78536).
A further data set deals with T1, MMP-1 (Homo sapiens, UniProt P03956).
T1 sequence (P03956 100-469): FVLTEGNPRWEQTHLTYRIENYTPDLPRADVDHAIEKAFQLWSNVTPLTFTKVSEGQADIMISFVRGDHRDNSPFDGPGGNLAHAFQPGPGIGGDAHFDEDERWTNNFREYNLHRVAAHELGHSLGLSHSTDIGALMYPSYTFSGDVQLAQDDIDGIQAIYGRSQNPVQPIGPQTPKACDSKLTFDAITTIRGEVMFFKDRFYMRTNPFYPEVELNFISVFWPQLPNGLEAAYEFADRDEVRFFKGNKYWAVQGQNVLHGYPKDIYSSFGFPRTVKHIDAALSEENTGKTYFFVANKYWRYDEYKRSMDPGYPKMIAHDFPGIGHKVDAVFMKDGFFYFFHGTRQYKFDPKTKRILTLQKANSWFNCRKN

The target in data set [1] is T2, MMP-3 (Homo sapiens, UniProt P08254).
Target sequence in this assay (P08254 100-477, species assumed): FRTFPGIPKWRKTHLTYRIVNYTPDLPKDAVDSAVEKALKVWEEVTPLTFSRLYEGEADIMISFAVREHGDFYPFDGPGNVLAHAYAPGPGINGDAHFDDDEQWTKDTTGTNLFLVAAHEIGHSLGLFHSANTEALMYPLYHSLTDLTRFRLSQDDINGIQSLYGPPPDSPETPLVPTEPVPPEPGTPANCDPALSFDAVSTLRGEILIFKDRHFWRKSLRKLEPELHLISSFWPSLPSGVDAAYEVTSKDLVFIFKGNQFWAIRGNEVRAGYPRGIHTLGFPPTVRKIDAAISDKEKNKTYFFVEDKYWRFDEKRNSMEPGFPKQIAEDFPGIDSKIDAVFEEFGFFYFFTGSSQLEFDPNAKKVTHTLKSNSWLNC
The target in another data set is T3, MMP-2 (Homo sapiens, UniProt P08253).
T3 sequence (P08253 110-660): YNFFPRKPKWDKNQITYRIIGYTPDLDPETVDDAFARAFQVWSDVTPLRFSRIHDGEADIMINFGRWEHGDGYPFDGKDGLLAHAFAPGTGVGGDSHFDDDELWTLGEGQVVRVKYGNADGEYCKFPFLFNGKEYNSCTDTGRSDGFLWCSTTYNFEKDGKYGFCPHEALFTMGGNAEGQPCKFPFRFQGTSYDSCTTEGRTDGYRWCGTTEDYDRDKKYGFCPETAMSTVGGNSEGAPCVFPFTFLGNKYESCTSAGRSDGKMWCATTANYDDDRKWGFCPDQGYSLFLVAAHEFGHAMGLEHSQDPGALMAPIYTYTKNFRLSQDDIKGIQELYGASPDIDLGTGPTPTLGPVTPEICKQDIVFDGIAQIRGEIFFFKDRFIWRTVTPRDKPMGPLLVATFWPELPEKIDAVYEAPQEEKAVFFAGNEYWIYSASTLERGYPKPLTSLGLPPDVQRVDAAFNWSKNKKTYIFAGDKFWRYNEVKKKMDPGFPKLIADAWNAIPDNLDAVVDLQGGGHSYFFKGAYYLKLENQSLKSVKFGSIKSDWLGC

A further data set has as its target T4, MMP-7 (Homo sapiens, UniProt P09237).
T4 sequence (P09237 95-267): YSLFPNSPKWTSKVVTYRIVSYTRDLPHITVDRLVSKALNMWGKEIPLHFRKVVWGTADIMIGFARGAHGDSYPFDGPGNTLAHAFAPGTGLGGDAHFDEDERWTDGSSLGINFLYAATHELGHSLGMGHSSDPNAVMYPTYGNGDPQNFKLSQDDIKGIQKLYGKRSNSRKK

Data set [2] addresses T2, MMP-3. Conditions: for Ki values, human MMP-3 catalytic domain: competitive inhibitor.
Target sequence in this assay (P08254 100-477): as the sequence (P08254 100-477, species assumed) above
For data set [3], the target named is T5, rabbit MMP-3 catalytic domains (Oryctolagus cuniculus, UniProt P28863).
T5 construct: rabbit MMP-3 catalytic domains
Conditions: competitive inhibitor.

For data set [4], the target named is murine macrophage metalloelastase (MME/MMP-12) (Mus musculus, UniProt P34960).
Data set [5] concerns the target pseudolysin from P. aeruginosa (Pseudomonas aeruginosa, UniProt P14756).
The next data set has as its system multiple sclerosis. Conditions: clinical study, 943 patients with primary progressive MS.

MMP-9, sequence (P14780 94-707, species assumed): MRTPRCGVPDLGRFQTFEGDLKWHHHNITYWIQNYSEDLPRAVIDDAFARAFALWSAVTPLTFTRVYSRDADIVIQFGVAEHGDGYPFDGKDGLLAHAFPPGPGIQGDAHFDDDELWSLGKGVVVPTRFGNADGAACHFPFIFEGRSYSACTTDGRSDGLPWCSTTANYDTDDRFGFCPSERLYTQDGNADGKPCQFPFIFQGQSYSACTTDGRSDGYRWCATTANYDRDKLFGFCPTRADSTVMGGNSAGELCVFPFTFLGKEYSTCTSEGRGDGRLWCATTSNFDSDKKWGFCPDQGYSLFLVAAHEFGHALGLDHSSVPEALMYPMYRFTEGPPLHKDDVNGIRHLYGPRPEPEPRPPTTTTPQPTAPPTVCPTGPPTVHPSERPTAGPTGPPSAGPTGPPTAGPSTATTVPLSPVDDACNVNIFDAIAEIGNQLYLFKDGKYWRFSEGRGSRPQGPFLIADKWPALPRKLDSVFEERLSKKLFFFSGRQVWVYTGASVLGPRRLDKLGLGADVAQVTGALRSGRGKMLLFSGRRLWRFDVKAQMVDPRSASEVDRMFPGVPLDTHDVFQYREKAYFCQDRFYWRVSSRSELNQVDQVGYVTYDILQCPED
T5 sequence (P28863 101-273 limits assumed): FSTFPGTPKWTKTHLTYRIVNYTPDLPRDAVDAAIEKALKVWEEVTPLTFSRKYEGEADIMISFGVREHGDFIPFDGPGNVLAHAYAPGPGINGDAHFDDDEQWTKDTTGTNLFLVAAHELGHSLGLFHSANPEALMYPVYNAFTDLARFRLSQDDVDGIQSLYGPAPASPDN
MMP-8, sequence (P22894 101-467, species assumed): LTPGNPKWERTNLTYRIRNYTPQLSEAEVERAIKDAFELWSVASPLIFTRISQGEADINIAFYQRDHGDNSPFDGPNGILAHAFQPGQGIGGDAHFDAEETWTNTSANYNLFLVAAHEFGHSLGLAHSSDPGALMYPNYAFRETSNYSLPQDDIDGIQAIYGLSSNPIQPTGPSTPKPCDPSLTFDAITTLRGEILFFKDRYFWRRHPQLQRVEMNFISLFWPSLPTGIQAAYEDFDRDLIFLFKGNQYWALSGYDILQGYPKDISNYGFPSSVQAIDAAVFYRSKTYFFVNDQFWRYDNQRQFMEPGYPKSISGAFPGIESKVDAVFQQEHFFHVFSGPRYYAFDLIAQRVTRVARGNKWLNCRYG
TACE, sequence (P78536 215-824): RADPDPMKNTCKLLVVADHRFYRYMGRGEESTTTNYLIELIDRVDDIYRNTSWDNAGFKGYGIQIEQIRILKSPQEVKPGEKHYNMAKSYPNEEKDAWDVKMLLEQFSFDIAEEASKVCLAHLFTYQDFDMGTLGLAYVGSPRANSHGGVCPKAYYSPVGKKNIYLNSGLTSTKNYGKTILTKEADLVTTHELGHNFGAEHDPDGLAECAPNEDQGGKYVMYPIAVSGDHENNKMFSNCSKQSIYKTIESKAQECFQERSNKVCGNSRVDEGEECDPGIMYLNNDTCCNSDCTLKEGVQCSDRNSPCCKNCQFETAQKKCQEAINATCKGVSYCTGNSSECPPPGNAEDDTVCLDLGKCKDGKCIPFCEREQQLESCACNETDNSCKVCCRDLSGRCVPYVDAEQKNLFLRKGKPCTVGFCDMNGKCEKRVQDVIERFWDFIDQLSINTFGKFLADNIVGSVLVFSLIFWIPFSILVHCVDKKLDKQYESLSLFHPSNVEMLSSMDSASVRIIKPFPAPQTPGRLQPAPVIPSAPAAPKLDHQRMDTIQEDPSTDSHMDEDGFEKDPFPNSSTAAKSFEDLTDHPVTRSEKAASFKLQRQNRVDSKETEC
murine macrophage metalloelastase (MME/MMP-12), sequence (P34960 110-473): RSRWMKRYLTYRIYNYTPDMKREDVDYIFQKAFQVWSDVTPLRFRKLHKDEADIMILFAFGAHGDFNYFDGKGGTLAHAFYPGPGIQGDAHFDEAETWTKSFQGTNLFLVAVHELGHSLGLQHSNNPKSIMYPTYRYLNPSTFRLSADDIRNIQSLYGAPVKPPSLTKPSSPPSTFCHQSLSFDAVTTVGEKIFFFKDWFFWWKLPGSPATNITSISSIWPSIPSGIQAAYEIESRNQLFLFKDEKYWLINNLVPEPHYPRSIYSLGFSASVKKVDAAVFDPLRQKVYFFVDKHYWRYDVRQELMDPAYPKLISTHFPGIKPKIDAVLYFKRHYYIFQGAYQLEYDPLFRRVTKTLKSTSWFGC
pseudolysin from P. aeruginosa, sequence (P14756 198-498): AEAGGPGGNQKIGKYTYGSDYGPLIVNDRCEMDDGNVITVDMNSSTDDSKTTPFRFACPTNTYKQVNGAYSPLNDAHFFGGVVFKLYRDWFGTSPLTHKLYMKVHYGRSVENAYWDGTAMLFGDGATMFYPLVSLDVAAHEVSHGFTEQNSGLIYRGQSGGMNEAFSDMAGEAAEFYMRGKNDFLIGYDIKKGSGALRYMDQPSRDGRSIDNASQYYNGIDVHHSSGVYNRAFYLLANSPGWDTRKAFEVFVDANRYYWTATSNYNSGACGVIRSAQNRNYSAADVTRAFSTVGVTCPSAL

The term IC50 denotes the midpoint of a concentration-inhibition curve. For “4-Abz-Gly-Pro-D-Leu-D-Ala-NH—OH [MMP Inhibitor I (FN-439)]”, the IC50 at MMP-1 was 1000 nM; on MMP-3 [1] it was 150000 nM; on MMP-8, 1000 nM; at MMP-9, 30000 nM.

`O=C(NCCCCN1CCOCC1)c1cc2ccccc2o1` [CL-82198]: the “inhibition of MMP-1” value at MMP-1 was “Does not inhibit”. In addition, on MMP-9, the “inhibition of MMP-9” value is “Does not inhibit”. For the same molecule, the IC50 at MMP-13 is 10000 nM. In addition, the “inhibition of TACE” value on TACE was “Does not inhibit”.

Take `N=C(NCCCCCCNC(=N)NC(=N)Nc1ccc(Cl)cc1)NC(=N)Nc1ccc(Cl)cc1` [Chlorhexidine, Dihydrochloride]: at MMP-2, the “inhibition of MMP-2” value was “Acts as a Zn2+-chelating inhibitor of MMP-2 and MMP-9”. The “inhibition of MMP-9” value on MMP-9 was “Acts as a Zn2+-chelating inhibitor of MMP-2 and MMP-9”.

One may read the Ki as a dissociation constant, usually derived from enzyme kinetics or from competition with a known ligand. As for `CC(C)C[C@H](CC(=O)O)C(=O)N[C@@H](Cc1c[nH]c2ccccc12)C(=O)N[C@@H](C)c1ccccc1` [GM 1489], the Ki at MMP-1 was 0.2 nM; on MMP-2, 500 nM; on MMP-3 [1], 20000 nM; at MMP-8, 100 nM; at MMP-9, 100 nM.

`CNC(=O)C(CCc1ccccc1)NC(=O)C(CC(=O)NO)CC(C)C` (centres unmarked) [MMP Inhibitor III]: the IC50 on MMP-1 is 7.4 nM; at MMP-2 it was 2.3 nM; on MMP-3 [1], 135 nM; at MMP-7, 10 to 100 nM; at MMP-13, 1 to 10 nM.

For `CCCCCCCC/C=C\CCCCCCCC(=O)NO` [MMP-2 Inhibitor I (OA-Hy)], on MMP-2, the Ki is 1700 nM.

For the molecule `COC(=O)[C@H](Cc1ccccc1)NC(=O)Nc1nnc(S)s1` [MMP-2/MMP-3 Inhibitor I], the Ki at MMP-2 is 17000 nM.

In the case of `CC(NC(=O)C(Cc1ccccc1)NC(=O)CCC(=O)NO)C(N)=O` (centres unmarked) [MMP-2/MMP-9 Inhibitor IV, HONH—COCH2CH2CO-FA-NH2], the Ki is 13.9 nM at MMP-2 and 600 nM at MMP-9.

On to `O=C(O)CCC(=NO)c1ccc2oc3ccccc3c2c1` [MMP-3 Inhibitor V, 4-Dibenzofuran-2′-yl-4-hydroximino-butyric Acid], for which the “Ki values, human MMP-3 catalytic domain” value on MMP-3 [2] is given as “the low μM range”. In addition, the “Ki values, rabbit MMP-3 catalytic domain” value in data set [3] is on record as “the low μM range”.

`O=C(O)CCC(=NO)c1ccc(-c2ccccc2)cc1` [MMP-3 Inhibitor VI, 4-(4′-Biphenyl)-4-hydroxyimino-butyric Acid]: at MMP-3 [2], the “Ki values, human MMP-3 catalytic domain” value was “the low μM range”. In addition, in [3], the “Ki values, rabbit MMP-3 catalytic domain” value is on record as “the low μM range”.

Regarding `COc1ccc(S(=O)(=O)N(Cc2ccccc2)C(CC(C)C)C(=O)NO)cc1` (centres unmarked) [MMP-3 Inhibitor VIII], the Ki at MMP-3 [2] is 23 nM. In data set [4], the IC50 is 13 nM.

Take `O=S(=O)(CCC(S)CS)c1ccc(Oc2ccccc2)cc1` (centres unmarked) [compound 1, 4-(4-phenoxyphenylsulfonyl)butane-1,2-dithiol]: the “inhibition of MMP-2” value on MMP-2 was “bind selectively and inhibit potently”. Moreover, the “inhibition of MMP-9” value on MMP-9 was “bind selectively and inhibit potently”.

In the case of `O=S(=O)(CCCC(S)CS)c1ccc(Oc2ccccc2)cc1` (centres unmarked) [compound 2, 5-(4-phenoxyphenylsulfonyl)pentane-1,2-dithiol], the “inhibition of MMP-2” value on MMP-2 was “bind selectively and inhibit potently”. For the same molecule, the “inhibition of MMP-9” value on MMP-9 was “bind selectively and inhibit potently”.

In the case of “H-Cys1-Thr-Thr-His-Trp-Gly-Phe-Thr-Leu-Cys10-OH (cyclic: 1 → 10) [MMP-2/MMP-9 Inhibitor III]”, the IC50 with MMP-2 is 10000 nM.

With “HONH—COCH2CH2CO-Phe-Ala-NH2 [MMP Inhibitor IV]”, the “inhibition of pseudolysin from P. aeruginosa” value in data set [5] is “potently inhibits MMPs and”.

In the case of “RCGVPD [MMP-3 Inhibitor I, Ac-Arg-Cys-Gly-Val-Pro-Asp-NH2]”, on MMP-3 [1], the IC50 was 5000 nM.

On to glatiramer acetate, for which, in the data set with multiple sclerosis, the “progression of disability and disease” value is “failed to halt the progression of disability and the disease”.
